Experiments:
[1] = Slurrying experiment (single form) in methanol, thermodynamic stability; type: physicochemical; settings: for polymorphic form after slurrying (XRPD): slurried in methanol for four days at 25° C.
Experimental: The stability of the various solid forms of 5-(ethylsulfonyl)-2-(naphthalen-2-yl)benzo[d]oxazole was investigated by stirring samples of each and mixtures thereof in methanol for defined time periods.
Approximately 10 mg of two polymorphic forms was slurried in 0.25 ml of methanol for 4 days at either room temperature or 60° C. The supernatant liquor was then removed and the resulting solid was dried under vacuum for 24 hrs.
Approximately 2 mg of sample was gently compressed on the XRPD zero back ground single obliquely cut silica sample holder. The sample was then loaded into a Philips X-Pert MPD diffractometer and analysed using the following experimental conditions:
Tube anode: Cu Generator tension: 40 kV Tube current: 40 mA Wavelength alpha1: 1.5406 A Wavelength alpha2: 1.5444 A Start angle [2θ]: 5 End angle [2θ]: 35 Time per step: 2.5 seconds Scan step size: 0.06

Utrophin A promoter = test: Luciferase reporter assay (murine H2K cells); type: cell-based, mouse; settings: H2K/mdx/Utro A reporter cells, final concentration 10 μM, 48 hrs
Experimental: The cell line used for the screen is an immortalized mdx mouse H2K cell line that has been stably transfected with a plasmid containing 5 kb fragment of the Utrophin A promoter including the first untranslated exon linked to a luciferase reporter gene (see FIG. 26). Under conditions of low temperature and interferon containing media, the cells remain as myoblasts. These are plated into 96 well plates and cultured in the presence of compound for three days. The level of luciferase is then determined by cell lysis and reading of the light output from the expressed luciferase gene utilising a plate luminometer. The H2K/mdx/Utro A reporter cell line was passaged twice a week until ≦30% confluent. The cells were grown at 33° C. in the presence of 10% CO2 To remove the myoblasts for platting, they were incubated with Trypsin/EDTA until the monolayer started to detach. The H2K/mdx/Utro A reporter cell line cells were plated out into 96 well plates (Falcon 353296, white opaque) at a density of approximately 5000 cells/well in 190 μl normal growth medium. The plates were then incubated at 33° C. in the presence of 10% CO2 for 24 hrs. […] The plates were then incubated for a further 48 hrs Cells were then lysed in situ following the manufacture's protocols (Promega Steady-Glo Luciferase Assay System (E2520). Then counted for 10 seconds using a plate luminometer (Victor1420).

polymorphic form after slurrying (XRPD) [1] | polymorphic form after slurrying (XRPD) ([1]; listed as Polymorphic form 1) | stability compared with previously known forms ([1]; stirring in methanol) | Structure (SMILES) | polymorphic form after slurrying (XRPD) ([1]; listed as Polymorphic form 2) | Biological activity in luciferase reporter assay relative to control (Utrophin A promoter)
retains its structure | no change in the polymorphic form | increased stability | CCS(=O)(=O)c1ccc2oc(-c3ccc4ccccc4c3)nc2c1 [polymorphic form 1, 5-(ethylsulfonyl)-2-(naphthalen-2-yl)benzo[d]oxazole] | – | –
converted into polymorphic form 1 | – | – | CCS(=O)(=O)c1ccc2oc(-c3ccc4ccccc4c3)nc2c1 [polymorphic form 2, 5-(ethylsulfonyl)-2-(naphthalen-2-yl)benzo[d]oxazole] | polymorphic form 1 has converted to polymorphic form 2 | –
– | – | – | CCS(=O)(=O)c1ccc2oc(-c3ccc4ccccc4c3)nc2c1 [5-(ethylsulfonyl)-2-(naphthalen-2-yl)benzo[d]oxazole] | – | +++ (Between 301% and 400% relative to control)
